Measurements: the supplement of paper PMC11952222, “Development and comparison of single FLT3-inhibitors to dual FLT3/TAF1-inhibitors as an anti-leukemic approach” (PLOS One, 2025)
± gives the standard deviation of the averaged measurements.

Tests used:
Assay in all cases: cell viability (CellTiter-Glo luminescence) relative to DMSO (fraction of DMSO control); higher = higher signal (more live cells for CellTiter-Glo)
Conditions in all cases: 72 h
DU4475 = system: DU4475
Procedure: (§1)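 MOLM13, DU4475, HDQP1 and IGROV1 cells were treated with compounds in 384-well format for 72 h (KASUMI-1 in 96-well plates, RPMI + 10% FCS, 72 h). Viability was read with CellTiter-Glo and cell death with CellTox Green, both normalised to DMSO vehicle. Doses ranged 0.001-30 µM.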

HDQP1 = system: HDQP1
Procedure: as §1

IGROV1 = system: IGROV1
Procedure: as §1

KASUMI-1 = system: KASUMI-1
Procedure: as §1

MOLM13 = system: MOLM13
Procedure: as §1

| SMILES | cell viability (DU4475; 0.01 µM) | cell viability (DU4475; 0.1 µM) | cell viability (DU4475; 0.3 µM) | cell viability (DU4475; 1 µM) | cell viability (DU4475; 3 µM) | cell viability (DU4475; 10 µM) | cell viability (DU4475; 30 µM) | cell viability (HDQP1; 0.01 µM) | cell viability (HDQP1; 0.1 µM) | cell viability (HDQP1; 0.3 µM) | cell viability (HDQP1; 1 µM) | cell viability (HDQP1; 3 µM) | cell viability (HDQP1; 10 µM) | cell viability (HDQP1; 30 µM) | cell viability (IGROV1; 0.01 µM) | cell viability (IGROV1; 0.1 µM) | cell viability (IGROV1; 0.3 µM) | cell viability (IGROV1; 1 µM) | cell viability (IGROV1; 3 µM) | cell viability (IGROV1; 10 µM) | cell viability (IGROV1; 30 µM) | cell viability (KASUMI-1; 0.000948683 µM) | cell viability (KASUMI-1; 0.003 µM) | cell viability (KASUMI-1; 0.00948683 µM) | cell viability (KASUMI-1; 0.03 µM) | cell viability (KASUMI-1; 0.0948683 µM) | cell viability (KASUMI-1; 0.3 µM) | cell viability (KASUMI-1; 0.948683 µM) | cell viability (KASUMI-1; 3 µM) | cell viability (KASUMI-1; 9.48683 µM) | cell viability (KASUMI-1; 30 µM) | cell viability (MOLM13; 0.01 µM) | cell viability (MOLM13; 0.1 µM) | cell viability (MOLM13; 0.3 µM) | cell viability (MOLM13; 1 µM) | cell viability (MOLM13; 3 µM) | cell viability (MOLM13; 10 µM) | cell viability (MOLM13; 30 µM) |
| --- | --- | --- | --- | --- | --- | --- | --- | --- | --- | --- | --- | --- | --- | --- | --- | --- | --- | --- | --- | --- | --- | --- | --- | --- | --- | --- | --- | --- | --- | --- | --- | --- | --- | --- | --- | --- | --- | --- |
| CC(C)(C)c1ccc(C(=O)Nc2cc(-c3ccccc3)n[nH]2)cc1 [3i-1247] | 1.02 ± 0.037 | 0.998 ± 0.027 | 0.955 ± 0.025 | 0.873 ± 0.027 | 0.446 ± 0.053 | 0.028 ± 0.0065 | 0.00743 ± 0.006 | 0.999 ± 0.019 | 1 ± 0.016 | 0.943 ± 0.046 | 0.877 ± 0.062 | 0.786 ± 0.061 | 0.719 ± 0.071 | 0.584 ± 0.12 | 0.974 ± 0.071 | 0.955 ± 0.11 | 0.803 ± 0.035 | 0.739 ± 0.034 | 0.467 ± 0.062 | 0.365 ± 0.019 | 0.243 ± 0.049 | 1.26 ± 0.087 | 1.338 ± 0.0028 | 1.48 ± 0.063 | 1.411 ± 0.0049 | 1.38 ± 0.063 | 1.37 ± 0.064 | 1.2 ± 0.041 | 0.5738 ± 0.0019 | 0.1148 ± 0.00061 | 0.0202 ± 0.0019 | 0.858 ± 0.073 | 0.388 ± 0.12 | 0.19 ± 0.062 | 0.0317 ± 0.0089 | 0.00462 ± 0.0058 | 0.00157 ± 0.00088 | 0.000514 ± 0.00038 |
| Cc1cc(-c2cc(NC(=O)c3ccc(C(C)(C)C)cc3)[nH]n2)ccn1 [3i-1246] | 1 ± 0.023 | 1 ± 0.048 | 0.983 ± 0.023 | 0.966 ± 0.045 | 0.92 ± 0.029 | 0.435 ± 0.12 | 0.00106 ± 0.0011 | 0.98 ± 0.034 | 0.99 ± 0.031 | 0.986 ± 0.057 | 0.928 ± 0.083 | 0.943 ± 0.068 | 0.628 ± 0.098 | 0.178 ± 0.052 | 0.998 ± 0.05 | 0.958 ± 0.072 | 0.866 ± 0.042 | 0.864 ± 0.095 | 0.811 ± 0.053 | 0.587 ± 0.085 | 0.19 ± 0.051 | 1.076 ± 0.0022 | 1.13 ± 0.067 | 1.17 ± 0.087 | 1.22 ± 0.064 |  | 1.1 ± 0.073 | 0.962 ± 0.2 | 0.566 ± 0.018 | 0.239 ± 0.0055 | 0.00978 ± 0.0007 | 0.959 ± 0.052 | 0.755 ± 0.043 | 0.418 ± 0.062 | 0.21 ± 0.031 | 0.0386 ± 0.018 | 0.0136 ± 0.037 | 0.000242 ± 0.0027 |
